Values joined by “and” are separate entries in the source; they are usually repeats but may differ in a detail not shown here. Equal entries are not always repeated.
Columns and labels:
Assay type in all cases: in vivo
[1] = test system: lethally-irradiated mice; test: Kaplan-Meier survival of mice given amifostine before lethal total body irradiation
Method: C57BL/6J male mice (10 weeks old) were obtained from Jackson Labs (Bar Harbor, Me.) and the mice were used in the experiments at an age of 12-13 weeks. Animals were exposed to total body irradiation in an irradiation pie cage (Braintree Scientific, Braintree, Mass.) at various doses. Irradiation was performed using a 137Cs source (Gamma Cell® 40 Exactor, Best Theratronics, Ottawa, Ontario).
Saline or amifostine was given to mice intraperitoneally at 250 mg/kg body weight 24 hours prior to 0 Gy- or 8 Gy-total body irradiation in a first set of experiments. In a second set of experiments, mice were left untreated or mice were administered saline or 200 mg/kg amifostine 45 minutes prior to 0 Gy- or 8.5 Gy-total body irradiation. Serum was collected from all mice at 24 hours after irradiation or a time point in the non-irradiated mice that would correspond to 24 hours after irradiation in the treated mice.
Validation with real-time qPCR: One-way ANOVA was used to confirm global significance. Dunnett's post-hoc testing procedure was used to compare miRNA levels in the irradiated+saline-group against three other experimental groups. Univariate comparisons were performed using the Student's t-test or the Student's t-test for paired samples. Pearson's correlation coefficient was used for correlation testing. Survival analysis was performed using the log-rank (Mantel-Cox) test.

[2] = test system: serum miRNAs miR-187-3p, miR-194-5p, miR-27a-3p, miR-30a-3p, miR-30c-5p; test: Serum miRNA levels (qPCR) in mice given amifostine before total body irradiation; details: amifostine 250 mg/kg 24 hours prior to 0 Gy or 8 Gy-total body irradiation; sera 24 hours post-irradiation
Method: Peripheral blood was collected by retro-orbital bleeding after anesthesia. Up to 200 μL of blood was collected in DNAse/RNAse-free Eppendorf tubes and incubated at room temperature for 2 hours to allow clotting. Blood samples were then centrifuged in an Eppendorf 5415C centrifuge at 14000 RPM (15996 g) for 5 minutes at room temperature.
Total RNA was isolated from serum samples by using the miRCURY™ RNA Isolation Kit—Biofluids from 50 μL mouse serum as per the manufacturer's manual. […] Total RNA was eluted in 50 μL of RNAse-free H2O and stored at −80° C. Per the manufacturer's recommendations, input volumes for serum RNA were optimized for the cDNA synthesis reaction. cDNA was synthesized in 10 μL reactions using the Universal cDNA Synthesis Kit II and was diluted 50-fold in RNAse/DNAse-free H2O for use in quantitative PCR. The reagents for RNA extraction and cDNA synthesis were obtained from Exiqon (Vedbaek, Denmark).
Diluted cDNA was subjected to quantitative PCR analysis in Pick-N-Mix plates designed in a 96-well format. […] All reagents used for quantitative PCR were obtained from Exiqon (Vedbaek, Denmark). […]

[3] = test system: HuCD34+ humanized NSG mice, 4 Gy to 4.5 Gy total body irradiation; test: Bone marrow cellularity, human CD45 positive cells and CFU-Cs in irradiated humanized mice given amifostine; details: amifostine 200 mg/kg prior to 4.0 Gy or 4.5 Gy total body irradiation vs saline
Method: Bone marrow was harvested as per protocols described in Parmar et al. (Stem Cells 28:1186-1195, 2010). Briefly, animals were dissected to isolate the femurs and tibia from the mouse hind limb. The extracted bones were flushed with a 23-gauge needle using Hank's Balanced Salt Solution (HBSS, Life Technologies, Grand Island, N.Y.) supplemented with 2% fetal bovine serum (FBS) and 1% 10 mM HEPES (Life Technologies) to obtain bone marrow. The cells were then passed through an 18 gauge needle to obtain a single cell suspension. The bone marrow mononuclear cell count (BM-MNC) was determined by counting cells using 3% acetic acid with methylene blue solution (Stem Cell Technologies, Vancouver, British Columbia). For LKS (lineage, cKit, Sca-1) staining to visualize hematopoietic progenitor cells (HPCs) and hematopoietic stem cells (HSCs), whole bone marrow was stained with biotinylated anti-lineage cocktail (anti-Mac1, Gr-1, CD3e, B220, and Ter119), APC-conjugated anti-cKit (clone 2B8), and PECy7-conjugated anti Sca-1 (clone D7) antibodies. Following primary antibody staining, the cells were washed and incubated in PE-conjugated streptavidin secondary antibody to visualize lineage-positive cells. All primary and secondary antibodies were obtained from BD Biosciences (San Jose, Calif.). The samples were acquired using an LSR Fortessa instrument (Becton Dickinson, Franklin Lakes, N.J.) and data was analyzed using FlowJo software (TreeStar, Ashland, Oreg.).
To assess colony-forming ability, whole bone marrow isolated after flushing mouse femurs and tibiae was plated in 12-well plates at a density of 20,000 to 100,000 cells/well in methylcellulose medium (Methocult CF M3434, Stem Cell Technologies, Vancouver, British Columbia) containing recombinant murine IL-3, recombinant murine IL-6, and recombinant human erythropoietin. Cells from all samples were plated in triplicates and incubated at 37° C. in 5% CO2 for 7 days at which time hematopoietic colonies formed (colony-forming units in culture, CFU-Cs) were scored. […]

[4] = test system: HuCD34+ humanized NSG mice, 4 Gy to 4.5 Gy total body irradiation; test: Peripheral blood CBC at euthanasia in irradiated humanized mice given amifostine; details: TBI + Amifostine
Method: Blood collection for CBCs (100 μL) was performed by retro-orbital bleeding after anesthesia in EDTA-coated tubes (BD Biosciences, San Jose, Calif.). CBCs were recorded with a Hemavet 950 FS hematology analyzer (Drew Scientific, Dallas, Tex.).
HuCD34^+ “humanized” NSG mice were obtained from Jackson Labs, Bar Harbor, Me. These mice were generated by irradiating each mouse at 1.4 Gy to deplete their bone marrow and injecting each mouse with CD34^+ human HSC. Each mouse was tested for engraftment of human CD45^+ cells and murine CD45^+ cells at 12 weeks following transplantation. Prior to the experiments described herein, the presence of human CD45^+ cells was confirmed in the peripheral blood and bone marrow from untreated control mice using an anti-human CD45 FITC antibody.
The HuCD34^+ mice were treated with saline or amifostine (200 mg/kg of body weight 45 min-1 hr before radiation exposure) and were subsequently treated with 4 Gy to 4.5 Gy of total body irradiation, or were left untreated. Following these treatments, total bone cellularity and the levels of serum miRNAs were determined in the mice. Both CD45 staining of peripheral blood and engraftment analysis of bone marrow was performed when animals became moribund (between 9-14 days after total body radiation) and were sacrificed. The mice were irradiated at approximately 12 weeks after initial assessment of engraftment.

NCCCNCCSP(=O)(O)O [amifostine]
survival ([1]; amifostine 200 mg/kg 45 minutes prior to 8.5 Gy-total body irradiation vs saline): prolonged survival
improvement in survival ([1]; amifostine 250 mg/kg intraperitoneally 24 hours prior to 8 Gy-total body irradiation vs saline, n=8 per group, p=0.0452): 50%
serum miRNA signature response to treatment [2]: responded to amifostine treatment only in the context of lethal radiation
number of CFU-Cs [3]: increase
number of human CD45 positive cells in the bone marrow [3]: increase
total bone marrow cellularity [3]: increase
HCT, CBC at euthanasia ([4]; group Avg): 10.93%
Hb, CBC at euthanasia ([4]; group Avg): 4.27 g/dL
PLT, CBC at euthanasia ([4]; group Avg): 104.33 K/uL
RBC, CBC at euthanasia ([4]; group Avg): 2.37 M/uL
WBC, CBC at euthanasia ([4]; group Avg): 1.22 K/uL
HCT, CBC at euthanasia ([4]; individual mice (# 8, 9, 13)): 17.00% and 11.00% and 4.80%
Hb, CBC at euthanasia ([4]; individual mice (# 8, 9, 13)): 4.80 g/dL (2×) and 3.20 g/dL
PLT, CBC at euthanasia ([4]; individual mice (# 8, 9, 13)): 213 K/uL and 44 K/uL and 56 K/uL
RBC, CBC at euthanasia ([4]; individual mice (# 8, 9, 13)): 2.55 M/uL and 1.65 M/uL and 2.92 M/uL
WBC, CBC at euthanasia ([4]; individual mice (# 8, 9, 13)): 1.28 K/uL and 1.19 K/uL and 1.20 K/uL

From patent US10801065B2, “Methods of determining levels of exposure to radiation and uses thereof” (priority 2015, dated 2020)
